The values below come from ChEMBL document CHEMBL5233205, “VISTA inhibitors in cancer immunotherapy: a short perspective on recent progresses” (RSC Med Chem, 2021).

Data set [1] concerns Splenocyte. The data set is described as follows: Cytoprotective activity against anti-CD3/CD28 stimulated mouse splenocyte assessed as rescue of cell proliferation at 100 nM incubated for 72 hrs by CFSE staining based flow cytometric analysis. In kind it is functional. In general terms: Flow cytometry measures light scatter and fluorescence of single cells or particles in a stream.

For data set [2], the system named is Splenocyte. The data set is described as follows: Cytoprotective activity against anti-CD3/CD28 stimulated mouse splenocyte assessed as rescue of PD-L1 stimulated inhibition of proliferation at 100 nM incubated for 72 hrs by CFSE staining based flow cytometric analysis. Also on record: scale not given: the % may be the effect or the level left.
The test system of data set [3] is Splenocyte. The data set is described as follows: Cytoprotective activity against anti-CD3/CD28 stimulated mouse splenocyte co-cultured with MDA-MB-231 cells overexpressing PD-L1 assessed as rescue of cell proliferation at 100 nM incubated for 72 hrs by CFSE staining based flow cytometric analysis relative to control. In kind it is functional.
The target in data set [4] is T1, V-type immunoglobulin domain-containing suppressor of T-cell activation (Homo sapiens, UniProt Q9H7M9).
T1 sequence (Q9H7M9 whole entry): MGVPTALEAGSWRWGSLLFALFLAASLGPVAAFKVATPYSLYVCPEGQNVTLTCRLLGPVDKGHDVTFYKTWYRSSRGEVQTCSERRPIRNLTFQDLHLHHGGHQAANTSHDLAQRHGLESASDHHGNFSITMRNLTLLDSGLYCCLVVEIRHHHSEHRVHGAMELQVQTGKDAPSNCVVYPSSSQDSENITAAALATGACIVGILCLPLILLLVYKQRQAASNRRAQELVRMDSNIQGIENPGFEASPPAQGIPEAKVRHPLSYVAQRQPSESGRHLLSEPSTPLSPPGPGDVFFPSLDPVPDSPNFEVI
The data set is described as follows: Binding affinity to recombinant human His-tagged VISTA ECD incubated for 2 hrs by TR-FRET assay.

In data set [5] the target is T1, V-type immunoglobulin domain-containing suppressor of T-cell activation. The data set is described as follows: Binding affinity to recombinant human VISTA ECD incubated for 2 hrs by ELISA assay. For orientation: In an ELISA, binding on a coated surface is turned into a signal by an enzyme label.
A further data set has as its system B16-F10. The data set is described as follows: Antimetastatic activity against mouse B16-F10 cells implanted in C57BL/6 mouse assessed as decrease in lung metastasis at 5 mg/kg,sc and measured after 14 days. The data set is classed as functional. The following applies: time 14 day. Also on record: scale not given: the % may be the effect or the level left.
For data set [6], the target named is Programmed cell death 1 ligand 1 (Homo sapiens, UniProt Q9NZQ7). The data set is described as follows: Inhibition of His-tagged human recombinant PD-L1 incubated for 15 mins by LANCE Ultra TR-FRET assay. For orientation: TR-FRET usually uses a lanthanide donor and a delayed reading to cut background.
Data set [7] has as its target T1, V-type immunoglobulin domain-containing suppressor of T-cell activation. The data set is described as follows: Inhibition of VISTA (unknown origin) incubated for 15 mins by LANCE Ultra TR-FRET assay.
The nature of data set [8]: Half life in mouse liver microsomes at 1 uM by LC-MS/MS analysis. In kind it is ADME, Microsome.

Positions of bridges follow the written chain, without caps; N, C: chain ends. Non-standard residues stand in square brackets, D forms with d. Residues, ends and D or L forms follow the SMILES beside them. *: point of attachment. X1 = N[C@@H](CO)C(=O)N[C@@H](Cc1ccccc1)C(=O)NCCCCN*; NMeT = CN[C@H](C(=O)O)[C@@H](C)O

Programmed cell death 1 ligand 1, sequence (Q9NZQ7 whole entry, the tested form may be a part): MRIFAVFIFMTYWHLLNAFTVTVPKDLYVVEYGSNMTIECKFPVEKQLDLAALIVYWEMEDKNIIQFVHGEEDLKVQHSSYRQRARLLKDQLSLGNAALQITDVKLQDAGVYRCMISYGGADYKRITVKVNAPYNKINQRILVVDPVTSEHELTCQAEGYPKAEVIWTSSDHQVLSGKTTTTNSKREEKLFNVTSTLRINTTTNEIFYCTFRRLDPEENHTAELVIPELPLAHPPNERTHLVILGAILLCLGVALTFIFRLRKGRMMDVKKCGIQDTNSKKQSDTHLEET

As to `C[C@H](O)[C@H](NC(=O)N[C@@H](CC(N)=O)c1nc([C@@H](N)CCCCN)no1)C(=O)O`, the values for the Activity in the data set with Splenocyte [1] and in the data set with Splenocyte [2] were 50% and 96%, respectively.
For `CCCNC(=O)CC[C@H](NC(=O)N[C@H](C(=O)O)[C@H](C)O)c1nc([C@@H](N)CO)no1`, the Activity is recorded as <50% in the data set on Splenocyte [1] and 119% with Splenocyte [2].
Turning to `C[C@@H](O)[C@@H]1NC(=O)[C@@H](NC(=O)[C@@H](N)CO)CCCCNC(=O)CC[C@@H](C(=O)N[C@@H](CO)C(=O)N[C@@H](Cc2ccccc2)C(N)=O)NC(=O)[C@H](CO)NC1=O` (H-SKTSESF-NH2; lactam 2-5), the Activity in the data set on Splenocyte [3] came to 60%.
For `C[C@H](O)[C@H](NC(=O)N[C@@H](CC(N)=O)c1nc(C2(N)CCCCC2)no1)C(=O)O`, the Activity with Splenocyte [1] is listed as 86%.
As a reminder, the IC50 is the concentration needed to halve the response being measured. In the case of `CN(C)c1n/c(=N\Cc2ccco2)ss1`, the IC50 in [4] came out at 4.8 µM; in [5] it was 9.7 µM.
Regarding `C[C@@H](O)[C@H](NC(=O)[C@H](CCC(N)=O)NC(=O)[C@@H](N)CO)C(=O)N[C@@H](CO)C(=O)N[C@@H](CCC(=O)NCCCCNC(=O)[C@H](Cc1ccccc1)NC(=O)[C@@H](N)CO)C(N)=O` (H-SQTSE(X1)-NH2), the Activity in the data set on B16-F10 turned out to be 64%.
`C[C@@H](O)[C@H]1C(=O)N[C@@H](CO)C(=O)N[C@H](C(=O)N[C@@H](CO)C(=O)N[C@@H](Cc2ccccc2)C(N)=O)CCCCNC(=O)CC[C@H](NC(=O)[C@@H](N)CO)C(=O)N1C` (H-SE[NMeT]SKSF-NH2; lactam 2-5): the Activity in the data set on Splenocyte [1] amounted to 82%.
As usually defined, the EC50 is the midpoint of the concentration-response curve. As to `C[C@H](O)[C@H](NC(=O)N[C@@H](CC(N)=O)c1nc([C@@H](N)CO)no1)C(=O)O`, the EC50 in data set [6] stood at 0.0661 µM; in data set [7], 0.0829 µM. The Activity is 89% with Splenocyte [3], 97% with Splenocyte [1] and >70% in the data set with Splenocyte [2].
By half-life is commonly meant the time needed for the level to fall by half in the phase considered. `CC[C@H](C)[C@H](NC(=O)[C@H](CCC(N)=O)NC(=O)[C@H](C)NC(=O)[C@H](CCCCN)NC(=O)[C@@H]1CCCN1C(=O)[C@H](C)NC(=O)[C@H](CC(C)C)NC(=O)[C@H](CCC(N)=O)NC(=O)[C@@H](NC(=O)[C@@H](NC(=O)[C@H](CCCNC(=N)N)NC(=O)[C@H](Cc1ccccc1)NC(=O)[C@H](CCCCN[C@@H](Cc1ccccc1)C(=O)N[C@@H](CO)C(=O)N[C@@H](CCC(=O)O)C(=O)N[C@@H](CO)C(=O)N[C@H](C(=O)N[C@@H](CC(N)=O)C(=O)N[C@@H](CO)C(=O)O)[C@@H](C)O)NC(=O)[C@H](Cc1ccccc1)NC(=O)[C@H](CO)NC(=O)[C@H](CCC(=O)O)NC(=O)[C@H](CO)NC(=O)[C@@H](NC(=O)[C@H](CC(N)=O)NC(=O)[C@@H](N)CO)[C@@H](C)O)C(C)C)[C@@H](C)O)C(=O)N[C@@H](CCCCN)C(=O)N[C@@H](CCC(=O)O)C(=O)O`: the half-life at 1 µM in [8] was > 1.5 h.
Consider `NCCCC[C@H](NC(=O)N[C@@H](CC(N)=O)C(=O)NNC(=O)[C@@H](N)CO)C(=O)O`, for which the Activity in the data set with Splenocyte [1] was 87%.
Same read-out and setting: the figure for `C[C@H](O)[C@@H]1NC(=O)N[C@@H](CC(N)=O)C(=O)NNC(=O)[C@H](CO)NC(=O)COCCOCCNC1=O` is 87%.
